The values below come from patent US9670227B2, “Thienopyrimidine derivatives, a process for their preparation and pharmaceutical compositions containing them” (LES LABORATOIRES SERVIER, priority 2013, dated 2017).

Broadly, the IC50 is the concentration at which inhibition is half-maximal.

Mcl-1 protein, sequence (Q07820 whole entry): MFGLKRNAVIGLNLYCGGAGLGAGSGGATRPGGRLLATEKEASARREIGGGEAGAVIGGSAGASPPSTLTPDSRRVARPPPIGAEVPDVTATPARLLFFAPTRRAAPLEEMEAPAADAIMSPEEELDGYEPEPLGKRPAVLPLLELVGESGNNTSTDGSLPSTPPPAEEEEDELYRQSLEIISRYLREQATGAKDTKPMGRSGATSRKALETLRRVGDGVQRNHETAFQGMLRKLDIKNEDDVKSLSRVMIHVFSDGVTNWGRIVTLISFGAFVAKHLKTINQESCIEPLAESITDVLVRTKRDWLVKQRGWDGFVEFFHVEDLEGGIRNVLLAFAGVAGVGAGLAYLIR

For one assay, the target named is Mcl-1 protein (UniProtKB primary accession number: Q07820) (Homo sapiens, UniProt Q07820). The experiment in a line: Inhibition of Mcl-1 by fluorescence polarisation, Method 1. Format: binding. The settings on record: fluorescence polarisation test; Method 1, or Method 2 where the value is underlined (underlining not visible); read-out: IC50 (M) Mcl-1 FP. The method, boiled down:
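Binding was measured as fluorescence polarisation of a fluorescein-labelled ligand (1 nM) displaced from Mcl-1 (5 nM), both final. Compounds ran as 11-point series with final DMSO at 5%.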
A general note: Polarisation of emitted light reports the rotation of a fluorescent probe.
Take `CCOC(=O)C(Cc1ccccc1OCc1ccnc(-c2ccccc2F)n1)Oc1ncnc2sc(-c3ccc(F)cc3)c(-c3ccc(OCCN(C)CC)c(Cl)c3C)c12` [Example 801, ethyl (2R)-2-{[(5Sa)-5-(3-chloro-4-{2-[ethyl(methyl)amino]ethoxy}-2-methylphenyl)-6-(4-fluorophenyl)thieno[2,3-d]pyrimidin-4-yl]oxy}-3-(2-{[2-(2-fluorophenyl)pyrimidin-4-yl]methoxy}phenyl)propanoate]: the concentration for half-maximal inhibition (IC50) amounted to 4.37e-06 M. The same measure, in the same setting: the same measure for `CCN(C)CCOc1ccc(-c2c(-c3ccc(F)cc3)sc3ncnc(OC(Cc4ccccc4OCc4ccnc(-c5ccccc5F)n4)C(=O)OCC(=O)N(C)C)c23)c(C)c1Cl` [Example 822, 2-(dimethylamino)-2-oxoethyl (2R)-2-{[(5Sa)-5-(3-chloro-4-{2-[ethyl(methyl)amino]ethoxy}-2-methylphenyl)-6-(4-fluorophenyl)thieno[2,3-d]pyrimidin-4-yl]oxy}-3-(2-{[2-(2-fluorophenyl)pyrimidin-4-yl]methoxy}phenyl)propanoate]: 2.4e-06 M; for `CCN(C)CCOc1ccc(-c2c(-c3ccc(F)cc3)sc3ncnc(OC(Cc4ccccc4OCc4ccnc(-c5ccccc5F)n4)C(=O)OCCOC)c23)c(C)c1Cl` [Example 803, 2-methoxyethyl (2R)-2-{[(5Sa)-5-(3-chloro-4-{2-[ethyl(methyl)amino]ethoxy}-2-methylphenyl)-6-(4-fluorophenyl)thieno[2,3-d]pyrimidin-4-yl]oxy}-3-(2-{[2-(2-fluorophenyl)pyrimidin-4-yl]methoxy}phenyl)propanoate]: 3.14e-06 M.

The assay is the same for the next values; noted with them: fluorescence polarisation test; Method 2 values are underlined in the patent (underlining not visible here); read-out: IC50 (M) Mcl-1 FP.
Consider `COc1ccccc1-c1nccc(COc2ccccc2CC(Oc2ncnc3sc(-c4ccc(F)cc4)c(-c4ccc(OCCN(C)C)c(Cl)c4C)c23)C(=O)O)n1` [Example 135, (2R)-2-{[(5Sa)-5-{3-chloro-4-[2-(dimethylamino)ethoxy]-2-methylphenyl}-6-(4-fluorophenyl)thieno[2,3-d]pyrimidin-4-yl]oxy}-3-(2-{[2-(2-methoxyphenyl)pyrimidin-4-yl]methoxy}phenyl)propanoic acid], for which the 50% inhibitory concentration (IC50) was 8.6e-09 M. Same read-out and setting: with `Cc1c(-c2c(-c3ccco3)sc3ncnc(O[C@H](Cc4ccccc4C(F)(F)F)C(=O)O)c23)ccc(OCCN2CCN(C)CC2)c1Cl` [Example 353, (2R)-2-{[(5Sa)-5-{3-chloro-2-methyl-4-[2-(4-methylpiperazin-1-yl)ethoxy]phenyl}-6-(furan-2-yl)thieno[2,3-d]pyrimidin-4-yl]oxy}-3-[2-(trifluoromethyl)phenyl]propanoic acid] the figure was 2.8e-08 M; with `Cc1c(-c2c(-c3ccco3)sc3ncnc(OC(Cc4cccc(F)c4F)C(=O)O)c23)ccc(OCCN2CCN(C)CC2)c1Cl` [Example 350, (2R)-2-{[(5Sa)-5-{3-chloro-2-methyl-4-[2-(4-methylpiperazin-1-yl)ethoxy]phenyl}-6-(furan-2-yl)thieno[2,3-d]pyrimidin-4-yl]oxy}-3-(2,3-difluorophenyl)propanoic acid], 2.8e-08 M; with `COc1ccccc1C[C@@H](Oc1ncnc2sc(-c3ccco3)c(-c3ccc(OCCN4CCN(C)CC4)c(F)c3C)c12)C(=O)O` (single isomer, unassigned) [Example 333], 7.9e-07 M.

The assay is the same for the next values; noted with them: fluorescence polarisation; Method 1, or Method 2; read-out: IC50 (M) Mcl-1 FP.
Regarding `COc1nccc(COc2ccccc2CC(Oc2ncnc3sc(-c4ccc(F)c(OCCN5CCOCC5)c4)c(-c4ccc(OC)c(Cl)c4C)c23)C(=O)O)n1` [Example 700, (2R)-2-{[(5Sa)-5-(3-chloro-4-methoxy-2-methylphenyl)-6-{4-fluoro-3-[2-(morpholin-4-yl)ethoxy]phenyl}thieno[2,3-d]pyrimidin-4-yl]oxy}-3-{2-[(2-methoxypyrimidin-4-yl)methoxy]phenyl}propanoic acid], the 50% inhibitory concentration (IC50) stood at 1.2e-08 M. Same read-out and setting: the same measure for `COc1ccccc1CC(Oc1ncnc2sc(-c3ccc(-c4ccccc4)o3)c(-c3ccc(OCCN4CCN(C)CC4)c(Cl)c3C)c12)C(=O)O` [Example 586, (2R)-2-{[(5Sa)-5-{3-chloro-2-methyl-4-[2-(4-methylpiperazin-1-yl)ethoxy]phenyl}-6-(5-phenylfuran-2-yl)thieno[2,3-d]pyrimidin-4-yl]oxy}-3-(2-methoxyphenyl)propanoic acid]: 1.4e-06 M.

For the compound `CCCCn1nccc1COc1ccccc1CC(Oc1ncnc2sc(-c3ccc(N)nc3)c(-c3ccc(OCCN4CCN(C)CC4)c(Cl)c3C)c12)C(=O)O` [Example 618, (2R)-2-{[6-(6-aminopyridin-3-yl)-(5Sa)-5-{3-chloro-2-methyl-4-[2-(4-methylpiperazin-1-yl)ethoxy]phenyl}thieno[2,3-d]pyrimidin-4-yl]oxy}-3-{2-[(1-butyl-1H-pyrazol-5-yl)methoxy]phenyl}propanoic acid], the IC50 came out at 5.6e-09 M. As for `COc1ccc(-c2c(-c3ccc(F)cc3)sc3ncnc(OC(Cc4ccccc4OCCN(C)C)C(=O)O)c23)c(C)c1Cl` [Example 662, (2R)-2-{[(5Sa)-5-(3-chloro-4-methoxy-2-methylphenyl)-6-(4-fluorophenyl)thieno[2,3-d]pyrimidin-4-yl]oxy}-3-{2-[2-(dimethylamino)ethoxy]phenyl}propanoic acid], the IC50 was determined as 2.7e-07 M. On the same count and under the same terms, the same measure for `CCc1sc2ncnc(OC(Cc3ccccc3)C(=O)O)c2c1-c1cccc(Cl)c1C` [Example 450, (2R)-2-{[(5Sa)-5-(3-chloro-2-methylphenyl)-6-ethylthieno[2,3-d]pyrimidin-4-yl]oxy}-3-phenylpropanoic acid]: 2.6e-08 M; for `CC#Cc1sc2ncnc(O[C@H](Cc3ccccc3OC)C(=O)O)c2c1-c1ccc(OCCN2CCN(C)CC2)c(F)c1C` [Example 686, (2R)-2-{[(5Ra)-5-{3-fluoro-2-methyl-4-[2-(4-methylpiperazin-1-yl)ethoxy]phenyl}-6-(prop-1-yn-1-yl)thieno[2,3-d]pyrimidin-4-yl]oxy}-3-(2-methoxyphenyl)propanoic acid]: 1e-06 M. Take `Cc1c(-c2c(-c3ccc(F)cc3)sc3ncnc(OC(Cc4ccccc4OCC4CCCO4)C(=O)O)c23)ccc(OCCN2CCN(CCCCN)CC2)c1Cl` [Example 645, (2R)-2-{[(5Sa)-5-(4-{2-[4-(4-aminobutyl)piperazin-1-yl]ethoxy}-3-chloro-2-methylphenyl)-6-(4-fluorophenyl)thieno[2,3-d]pyrimidin-4-yl]oxy}-3-{2-[(2R)-tetrahydrofuran-2-ylmethoxy]phenyl}propanoic acid]: the IC50 stood at 2.2e-08 M. On to `COc1cnc(C)cc1-c1nccc(COc2ccccc2CC(Oc2ncnc3sc(-c4ccc(F)cc4)c(-c4ccc(OCCN5CCN(C)CC5)c(Cl)c4C)c23)C(=O)O)n1` [Example 734, (2R)-2-{[(5Sa)-5-{3-chloro-2-methyl-4-[2-(4-methylpiperazin-1-yl)ethoxy]phenyl}-6-(4-fluorophenyl)thieno[2,3-d]pyrimidin-4-yl]oxy}-3-(2-{[2-(5-methoxy-2-methylpyridin-4-yl)pyrimidin-4-yl]methoxy}phenyl)propanoic acid], for which the IC50 is 9.48e-10 M. For `CCc1sc2ncnc(OC(Cc3ccccc3)C(=O)O)c2c1-c1cc(Cl)c(O)cc1C` [Example 439, (2R)-2-{[(5Ra)-5-(5-chloro-4-hydroxy-2-methylphenyl)-6-ethylthieno[2,3-d]pyrimidin-4-yl]oxy}-3-phenylpropanoic acid], the IC50 is 2.5e-07 M.

For the compound `CC#Cc1sc2ncnc(OC(Cc3ccccc3OCc3ccnn3C(C)(C)C)C(=O)OCC)c2c1-c1ccc(OCCN2CCN(C)CC2)c(Cl)c1C` [Example 792, ethyl (2R)-3-{2-[(1-tert-butyl-1H-pyrazol-5-yl)methoxy]phenyl}-2-{[(5Sa)-5-{3-chloro-2-methyl-4-[2-(4-methylpiperazin-1-yl)ethoxy]phenyl}-6-(prop-1-yn-1-yl)thieno[2,3-d]pyrimidin-4-yl]oxy}propanoate], the IC50 stood at 6.44e-06 M.

The same assay, now with this note: partial inhibitors; @ 10 uM test compound.
`CCc1sc2ncnc(O[C@H](Cc3ccccc3)C(=O)O)c2c1-c1ccc(OCCN2CCOCC2)c(Cl)c1C` [Example 421, (2R)-2-[((5Ra)-5-{3-chloro-2-methyl-4-[2-(morpholin-4-yl)ethoxy]phenyl}-6-ethylthieno[2,3-d]pyrimidin-4-yl)oxy]-3-phenylpropanoic acid]: the “percentage fluorescence polarisation inhibition, Mcl-1 FP” value came out at 38.1% @ 10 uM. Take `CCOC(=O)[C@@H](Cc1ccccc1OC)Oc1ncnc2sc(-c3ccsc3)c(-c3ccc(OCCN4CCN(C)CC4)c(Cl)c3C)c12` [Example 633, ethyl (2R)-2-{[(5Sa)-5-{3-chloro-2-methyl-4-[2-(4-methylpiperazin-1-yl)ethoxy]phenyl}-6-(thiophen-3-yl)thieno[2,3-d]pyrimidin-4-yl]oxy}-3-(2-methoxyphenyl)propanoate]: the “percentage fluorescence polarisation inhibition, Mcl-1 FP” value is 40.2 % @ 10 uM. Same read-out and setting: the same measure for `CCOC(=O)[C@@H](Cc1ccccc1OCc1ccnn1C(C)C)Oc1ncnc2sc(-c3ccc(F)cc3)c(-c3ccc(OCCN4CCN(C)CC4)c(Cl)c3C)c12` [Example 624, ethyl (2R)-2-{[(5Sa)-5-{3-chloro-2-methyl-4-[2-(4-methylpiperazin-1-yl)ethoxy]phenyl}-6-(4-fluorophenyl)thieno[2,3-d]pyrimidin-4-yl]oxy}-3-(2-{[1-(propan-2-yl)-1H-pyrazol-5-yl]methoxy}phenyl)propanoate]: 26.95% @ 10 uM.

The assay is the same for the next values; noted with them: test compound at 10 uM; Method 1, or Method 2 where the value is underlined (underlining not visible).
With `COc1ccccc1C[C@@H](Oc1ncnc2sc(-c3ccc(F)cc3)c(-c3ccc(OC)c(Cl)c3C)c12)C(=O)OCOC(=O)C(C)(C)C` [Example 846, {[(2R)-2-{[(5Sa)-5-(3-chloro-4-methoxy-2-methylphenyl)-6-(4-fluorophenyl)thieno[2,3-d]pyrimidin-4-yl]oxy}-3-(2-methoxyphenyl)propanoyl]oxy}methyl 2,2-dimethylpropanoate], the “percentage fluorescence polarisation inhibition (Mcl-1 FP), partial inhibitors” value was 25.1% @ 10 uM.
